From PMC10975765 (Pharmaceuticals, 2024)
Like-named read-outs stand apart in the source and are kept apart here.

Assays:
[1] = test system: Salmonella typhimurium TA1537; test: Bacterial reverse mutation test (Ames test), TA1537
Protocol: (§1) In brief, Salmonella typhimurium (TA98, TA100, TA102, TA1535, and TA1537) was cultured in a nutrient broth (12 mL) at 37 °C. […] Later, the mixture was added to 2 mL of top agar containing 0.5 mM L-histidine and 0.5 mM D-biotin. The mixture was agitated and poured onto the minimal agar plate and incubated at 37 °C for 48 h. All experiments were conducted in triplicate. The number of revertant colonies per plate was counted. The MR was calculated from the average of the revertant number divided by the average of negative control revertant number.

[2] = test system: Salmonella typhimurium TA100
Protocol: as §1

[3] = test system: Salmonella typhimurium TA1535
Protocol: as §1

[4] = test system: Salmonella typhimurium TA102; conditions: TA102, +S9, positive control
Protocol: as §1

[5] = test system: Salmonella typhimurium TA98; test: Bacterial reverse mutation test (Ames test), TA98; conditions: TA98, +S9, positive control
Protocol: as §1

[6] = test system: flies expressing human APP and BACE-1 in the developing eyes; test: Drosophila eye morphology by scanning electron microscopy; assay type: in vivo, Drosophila melanogaster; conditions: AD flies, 21 days
Protocol: All fly stocks were maintained in a standard medium at 25 °C, 60% humidity, and a 12 h/12 h light–dark cycle in constant climate chambers with ICH-compliant light source (BINDER GmbH, Tuttlingen, Germany). […] Flies were cultivated for 21 days at 28 °C, with food changes every three days.
The external compound eyes were then inspected using JSM-IT510 InTouchScope™ SEM Series (JEOL, Peabody, MA, USA) in a vacuum mode.

[7] = test system: isolated rat liver nuclei; conditions: cited from earlier work
[8] = test system: AChE; conditions: cited from earlier work; for IC50: read-out: AChE IC50
[9] = test system: transgenic Drosophila model for AD; conditions: cited from earlier work
[10] = biological target: butyrylcholinesterase (BChE) (Equus caballus, UniProt P81908); conditions: for interaction with donepezil to inhibit BChE: in combination with donepezil; for BChE inhibition (%): Figure 3
Protocol: (§2) AChE and BChE inhibition were determined using well-established protocols without modifications [55]. For BACE-1 inhibition, we complied with the manufacturer’s instructions (BACE-1 FRET assay kit, Sigma-Aldrich, St. Louis, MO, USA).

[11] = biological target: T1, β-secretase (BACE-1) (Homo sapiens, UniProt P56817); test: biochemical; assay type: biochemical; conditions: for BACE-1 inhibition (%): Figure 4
T1 construct: purchased Sigma-Aldrich
Protocol: as §2

[12] = test system: S. typhimurium TA98 and TA100; conditions: TA98 and TA100, with/without S9 extract; cited from earlier work
[13] = biological target: acetylcholinesterase (AChE) (Electrophorus electricus, UniProt O42275); conditions: in combination with donepezil
Protocol: AChE and BChE inhibition were determined using well-established protocols without modifications. For BACE-1 inhibition, we complied with the manufacturer’s instructions (BACE-1 FRET assay kit, Sigma-Aldrich, St. Louis, MO, USA).
The half-maximal inhibitory concentration (IC50) against AChE, BChE and BACE-1 were calculated using GraphPad Prism (version 9.0, La Jolla, CA, USA) as follows:(2) Y=Bottom+Top−Bottom/1+10^((logIC50−X) × (HillSlope)), where Y is response, decreasing as X increases, X is log of dose or concentration, Top and Bottom are plateaus in same units as Y, and Hillslope is data slope factor or hill slope, unitless.

[14] = rat, in vivo; cited from earlier work
[15] = test system: PC12 cells; conditions: Aβ25–35-induced oxidative stress in PC12 cells; cited from earlier work
[16] = test system: V79 Chinese hamster lung cells; conditions: cited from earlier work
[17] = test system: human lymphocytes; conditions: cited from earlier work
[18] = test system: BACE-1; conditions: cited from earlier work
[19] = cited from earlier work
[20] = sample alone at IC20 (donepezil 0)
[21] = sample alone at IC30 (donepezil 0)

T1 sequence (P56817 46-501): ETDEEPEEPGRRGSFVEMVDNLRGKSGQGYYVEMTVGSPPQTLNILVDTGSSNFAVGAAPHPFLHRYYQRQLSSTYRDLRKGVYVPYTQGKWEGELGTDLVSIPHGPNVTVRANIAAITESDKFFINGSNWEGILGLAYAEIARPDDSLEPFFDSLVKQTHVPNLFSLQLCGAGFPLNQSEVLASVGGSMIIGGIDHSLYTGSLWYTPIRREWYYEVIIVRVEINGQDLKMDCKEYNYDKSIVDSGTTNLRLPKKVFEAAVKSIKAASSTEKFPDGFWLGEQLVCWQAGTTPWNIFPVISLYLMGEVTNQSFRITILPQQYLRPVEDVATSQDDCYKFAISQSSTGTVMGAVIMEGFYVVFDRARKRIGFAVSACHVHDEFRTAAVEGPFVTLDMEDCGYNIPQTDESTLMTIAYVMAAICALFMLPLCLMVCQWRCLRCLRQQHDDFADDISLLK
Chain of butyrylcholinesterase (BChE) (P81908 whole entry): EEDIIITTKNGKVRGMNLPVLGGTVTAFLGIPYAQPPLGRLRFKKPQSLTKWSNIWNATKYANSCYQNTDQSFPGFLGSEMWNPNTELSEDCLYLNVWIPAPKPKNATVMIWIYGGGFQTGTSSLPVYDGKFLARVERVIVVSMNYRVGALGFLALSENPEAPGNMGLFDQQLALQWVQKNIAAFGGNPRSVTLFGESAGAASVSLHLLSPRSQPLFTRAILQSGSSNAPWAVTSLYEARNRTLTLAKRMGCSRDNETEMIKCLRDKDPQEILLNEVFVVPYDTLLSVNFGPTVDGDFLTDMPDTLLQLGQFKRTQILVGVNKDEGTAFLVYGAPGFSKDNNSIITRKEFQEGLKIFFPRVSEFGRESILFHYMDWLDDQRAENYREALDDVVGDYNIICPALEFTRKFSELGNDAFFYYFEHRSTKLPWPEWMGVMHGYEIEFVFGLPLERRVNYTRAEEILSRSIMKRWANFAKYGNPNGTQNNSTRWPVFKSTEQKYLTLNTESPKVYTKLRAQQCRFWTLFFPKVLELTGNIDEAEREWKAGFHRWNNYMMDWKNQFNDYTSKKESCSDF
Chain of acetylcholinesterase (AChE) (O42275 24-633): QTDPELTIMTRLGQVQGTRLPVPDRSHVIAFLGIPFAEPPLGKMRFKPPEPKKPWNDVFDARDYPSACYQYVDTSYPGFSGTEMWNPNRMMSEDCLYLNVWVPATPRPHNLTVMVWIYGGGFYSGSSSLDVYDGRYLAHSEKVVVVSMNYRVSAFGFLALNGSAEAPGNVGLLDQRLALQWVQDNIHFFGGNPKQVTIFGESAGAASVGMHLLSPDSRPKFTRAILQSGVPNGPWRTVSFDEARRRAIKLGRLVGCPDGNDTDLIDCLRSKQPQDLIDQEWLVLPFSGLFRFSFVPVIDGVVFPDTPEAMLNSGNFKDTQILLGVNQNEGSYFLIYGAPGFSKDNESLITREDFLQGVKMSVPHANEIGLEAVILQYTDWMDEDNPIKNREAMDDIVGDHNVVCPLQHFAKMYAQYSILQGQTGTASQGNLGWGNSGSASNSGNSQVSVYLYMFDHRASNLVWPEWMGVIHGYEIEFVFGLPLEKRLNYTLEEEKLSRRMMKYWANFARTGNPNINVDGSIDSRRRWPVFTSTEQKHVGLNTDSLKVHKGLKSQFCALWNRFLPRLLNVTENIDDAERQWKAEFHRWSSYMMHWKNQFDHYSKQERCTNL

Nc1ccc2cc3ccccc3cc2c1 [2-AA, 2-aminoanthracen]
MR (mutagenicity ratio) ([1]; TA1537, +S9, positive control): 20.71 | MR class ([1]; TA1537, +S9, positive control): (+) ((+): indicates the mutagenicity ratio (MR) is ≥2) | Revertant Colonies ([1]; TA1537, +S9, positive control): 203.67 ± 5.56 | MR (mutagenicity ratio) ([2]; TA100, +S9, positive control): 10.04 | MR class ([2]; TA100, +S9, positive control): (+) ((+): indicates the mutagenicity ratio (MR) is ≥2) | Revertant Colonies ([2]; TA100, +S9, positive control): 876.67 ± 34.21 | MR (mutagenicity ratio) ([3]; TA1535, +S9, positive control): 33.32 | MR class ([3]; TA1535, +S9, positive control): (+) ((+): indicates the mutagenicity ratio (MR) is ≥2) | Revertant Colonies ([3]; TA1535, +S9, positive control): 349.83 ± 18.89 | MR class [4]: (+) ((+): indicates the mutagenicity ratio (MR) is ≥2) | Revertant Colonies [4]: 960.67 ± 29.07 | MR (mutagenicity ratio) [5]: 14.15 | MR class [5]: (+) ((+): indicates the mutagenicity ratio (MR) is ≥2) | Revertant Colonies [5]: 1396.00 ± 48.94

Nc1c2ccccc2nc2ccccc12 [9-AA, 9-aminoacridine]
MR (mutagenicity ratio) ([1]; TA1537, −S9, positive control): 86.67 | MR class ([1]; TA1537, −S9, positive control): (+) ((+): indicates the mutagenicity ratio (MR) is ≥2) | Revertant Colonies ([1]; TA1537, −S9, positive control): 780.00 ± 24.11

COc1cc2c(cc1OC)C(=O)C(CC1CCN(Cc3ccccc3)CC1)C2 (stereo not shown) [Donepezil, donepezil]
eye morphology (retina degeneration, ommatidia and bristles) ([6]; donepezil 2.5 µM): did not reverse retina degeneration | eye morphology (retina degeneration, ommatidia and bristles) ([6]; donepezil 5 µM): did not reverse retina degeneration | eye morphology (retina degeneration, ommatidia and bristles) ([6]; donepezil 10 µM): eye phenotypes roughly similar to the negative control

O=c1c(O)c(-c2ccc(O)cc2)oc2cc(O)cc(O)c12 [Kaempferol, kaempferol]
nuclear DNA damages and lipid peroxidation [7]: induced nuclear DNA damages and lipid peroxidation | mode of AChE inhibition [8]: reversible mixed mode | IC50 [8]: 12.4 µM | memory loss, climbing ability and AChE activity [9]: delayed memory loss by maintaining climbing ability and reducing AChE activity | interaction with donepezil to inhibit BChE [10]: slight synergism | BChE inhibition (%) [10, 20]: 22% | BChE inhibition (%) [10, 21]: 29% | interaction with donepezil on BACE-1 ([11]; in combination with donepezil): slightly antagonistically | IC50 ([11]; read-out: Half-Maximal Inhibitory Concentration (IC50) BACE-1 (converted)): 299 µM | BACE-1 inhibition (%) [11, 20]: 16% | BACE-1 inhibition (%) [11, 21]: 29% | genotoxicity in S. typhimurium [12]: genotoxicity exclusively when the S9 extract was present | interaction with donepezil to inhibit AChE [13]: slightly antagonized | tumor induction [14]: did not significantly induce tumors

[N-]=[N+]=[N-].[Na+] [NaN3, sodium azide]
MR (mutagenicity ratio) ([2]; TA100, −S9, positive control): 17.14 | MR class ([2]; TA100, −S9, positive control): (+) ((+): indicates the mutagenicity ratio (MR) is ≥2) | Revertant Colonies ([2]; TA100, −S9, positive control): 1145.33 ± 52.03 | MR (mutagenicity ratio) ([3]; TA1535, −S9, positive control): 18.90 | MR class ([3]; TA1535, −S9, positive control): (+) ((+): indicates the mutagenicity ratio (MR) is ≥2) | Revertant Colonies ([3]; TA1535, −S9, positive control): 214.17 ± 9.51

O=c1c(O)c(-c2ccc(O)c(O)c2)oc2cc(O)cc(O)c12 [Quercetin, quercetin]
mode of AChE inhibition [8]: […] | IC50 [8]: […] | interaction with donepezil to inhibit BChE [10]: slight synergism | BChE inhibition (%) [10, 20]: 20% | BChE inhibition (%) [10, 21]: 32% | BACE-1 inhibition (%) [11, 20]: 22% | BACE-1 inhibition (%) [11, 21]: 33% | genotoxicity in S. typhimurium [12]: genotoxicity in the bacterial strains both with and without the S9 extract | interaction with donepezil to inhibit AChE [13]: slightly antagonized | neuroprotective effects [15]: demonstrated neuroprotective effects | micronuclei induction [16]: induced micronuclei | tumor induction [14]: did not significantly induce tumors | micronuclei induction [17]: induced micronuclei | IC50 [18]: […]

O=C(/C=C/c1ccc(O)c(O)c1)O[C@H](Cc1ccc(O)c(O)c1)C(=O)O [rosmarinic acid]
crossing of the BBB [19]: reported to cross the BBB
